Experiment [1] deals with IRAK4 (Homo sapiens (Human), UniProt Q9NWZ3). As to the kind of experiment: IRAK4 MSD degradation in OCI-LY10. In kind it is cell-based. The following applies: MSD. As to the method: Degradation of IRAK4 in OCI-LY10 was quantitatively measured using Meso Scale Discovery technology. […] Compounds were then added to the assay plates with a final top concentration of 1 to 10 μM in a 1:3 dilution series with total of 8 doses. The assay plates were then incubated for 4 to 24 hours at 37° C. under 5% CO2. […] To prepare MSD assay plates (Meso Scale Discovery Catalog number L15XA-3), the plates were coated with […] capture antibody (mouse Anti-IRAK4 antibody [2H9], ab119942) in PBS, at 40 μL/well. […] Cell lysates were then added to MSD assay plates and the plates were incubated at room temperature for 1 hour. The plates were then washed 3 times with 150 μL/well TBST buffer and 25 μL/well primary detection antibody (rabbit Anti-IRAK4 antibody [Y279], from Abcam. Catalog number ab32511, […]). The assay plates were then incubated at room temperature for 1 hour, washed 3 times with 150 μL/well TBST buffer and 25 µL/well secondary detection antibody, SULFO-TAG anti-rabbit antibody were added (anti rabbit antibody from Meso Scale Discovery, Catalog number R32AB-1, 1 μg/mL). The assay plates were then incubated at room temperature for 1 hour, washed 3 times with 150 μL/well TB ST buffer, and 150 μL/well MSD reading buffer (Meso Scale Discovery catalog number R92TC-2) was added. The plates were then analyzed by a MSD reader (Meso Scale Discovery, Model Quick Plex SQ 120). The data was then analyzed by software Prism 7.0 from GraphPad and the dose-depended IRAK4 degradation were fit using a three-parameter logistic equation to calculate DC50.

For experiment [2], the system named is OCI-LY10. Put plainly: CTG Cell Viability Assay - OCI-LY10. In kind it is cell-based, human. The following applies: OCI-LY10, 4 days, read-out: CTG Cell Viability Assay - OCI-LY10: Average external-IC50. The method, then: Compound-mediated viability effect on OCI-LY10 or TMD8 was quantitatively determined using the CellTiter-Glo® Luminescent Cell Viability Assay kit from Promega (Catalog number G7570) following manufacturer's recommended procedures. […] Compounds were then added to the assay plate with final top concentration of 10 μM and 1:3 dilution series with total of 9 doses. The final DMSO concentration was normalized to 0.2%. The assay plates were incubated at 37° C. for 4 days under 5% CO2. Then the assay plate was equilibrated at room temperature for 10 minutes. […] The data was then analyzed by software Prism 7.0 from GraphPad and the dose response curves were fit using a three-parameter logistic equation to calculate IC50.

[3] abbreviates: OCI-LY10, 4 hrs, read-out: IRAK4 MSD degradation in OCI-LY10 at 4 hrs: Average external-Abs DC50.
Where [4] appears, read: OCI-LY10, 24 hrs, read-out: IRAK4 MSD degradation in OCI-LY10 at 24 hrs: Average external-Abs DC50.

Where two headings read alike, the source gives them in different places.

Sequence of IRAK4 (Q9NWZ3 whole entry): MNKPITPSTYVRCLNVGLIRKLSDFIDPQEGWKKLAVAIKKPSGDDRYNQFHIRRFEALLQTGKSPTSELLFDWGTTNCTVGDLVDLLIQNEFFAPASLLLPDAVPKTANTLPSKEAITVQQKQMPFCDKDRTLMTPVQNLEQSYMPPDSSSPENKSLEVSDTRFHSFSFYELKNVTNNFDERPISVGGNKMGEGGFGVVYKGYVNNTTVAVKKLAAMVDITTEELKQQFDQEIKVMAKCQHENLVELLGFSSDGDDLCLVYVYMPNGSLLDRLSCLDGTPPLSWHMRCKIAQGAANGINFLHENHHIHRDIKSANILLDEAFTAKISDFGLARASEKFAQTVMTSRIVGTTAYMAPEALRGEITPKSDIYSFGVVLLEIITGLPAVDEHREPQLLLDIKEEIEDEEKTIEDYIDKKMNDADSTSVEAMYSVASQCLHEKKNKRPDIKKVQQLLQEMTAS

Turning to `CN(C[C@H]1CN(CCCNc2cccc3c2C(=O)N(C2CCC(=O)NC2=O)C3=O)CCO1)C[C@H]1CC[C@H](n2cc(NC(=O)c3cnn4ccc(N5C[C@H]6C[C@@H]5CO6)nc34)c(C(F)F)n2)CC1` (stereo partly drawn) [I-349], the DC50 was 100 to 1000 nM in experiment [1] (setting [3]) and 10 to 100 nM in experiment [1] (setting [4]). Also, the IC50 in experiment [2] (Homo sapiens, OCI-Ly10, 96 h) is below 50 nM.
`O=C1CCC(N2C(=O)c3cccc(NCCCOC4CCN(C[C@H]5CC[C@H](n6cc(NC(=O)c7cnn8ccc(N9CC%10(COC%10)C9)nc78)c(C(F)F)n6)CC5)CC4)c3C2=O)C(=O)N1` (stereo partly drawn) [I-364]: the DC50 in experiment [1] (setting [4]) lay within 10 to 100 nM. In addition, in experiment [2] (Homo sapiens, OCI-Ly10, 96 h), the IC50 fell in the range of 50 to 100 nM.
For the molecule `CC[C@@H]1[C@H](F)C(=O)N[C@@H]1COc1ncc(C#CC2CCN(CCCC3CCN(c4cccc5c4C(=O)N(C4CCC(=O)NC4=O)C5=O)CC3)CC2)c2cc(C(N)=O)c(OC)cc12` (stereo partly drawn) [I-234], the figures for the DC50 in experiment [1] (setting [3]) and in experiment [1] (setting [4]) were 100 to 1000 nM and 10 to 100 nM, respectively. For the same molecule, the IC50 in experiment [2] (Homo sapiens, OCI-Ly10, 96 h) is above 1000 nM.
For `CN(CCCOCCCNc1cccc2c1C(=O)N(C1CCC(=O)NC1=O)C2=O)C[C@H]1CC[C@H](n2cc(N(C)C(=O)c3coc(-c4ccnc(NCC5CC5)c4)n3)c(C(F)F)n2)CC1` (stereo partly drawn) [I-401], the results for the DC50 in experiment [1] (setting [3]) and in experiment [1] (setting [4]) were 100 to 1000 nM and above 1000 nM, respectively. Moreover, in experiment [2] (Homo sapiens, OCI-Ly10, 96 h), the IC50 lay in the range of 500 to 1000 nM.
With `Cn1c(=O)n(C2CCC(=O)NC2=O)c2ccc(CCCOCCC(=O)N3CCN([C@H]4CC[C@H](Nc5ncnc6[nH]cc(C7CCOCC7)c56)CC4)CC3)cc21` (stereo partly drawn) [I-21], the DC50 in experiment [1] (setting [3]) and in experiment [1] (setting [4]) was above 1000 nM throughout. Also, in experiment [2] (Homo sapiens, OCI-Ly10, 96 h), the IC50 fell in the range of 500 to 1000 nM.
`Cn1c(=O)n(C2CCC(=O)NC2=O)c2cccc(-c3cccc(CCCOCc4ccc(-n5cc(NC(=O)c6cnn7ccc(N8CCOCC8)nc67)c(C(F)F)n5)cc4)c3)c21` (stereo not drawn) [I-409]: in experiment [1] (setting [3]), the DC50 was above 1000 nM. The IC50 in experiment [2] (Homo sapiens, OCI-Ly10, 96 h) was above 1000 nM.
For `O=C1CCC(N2C(=O)c3cccc(NC4CCN(CCCNC[C@H]5CC[C@H](n6cc(NC(=O)c7cnn8ccc(N9CCOCC9)nc78)c(C(F)F)n6)CC5)CC4)c3C2=O)C(=O)N1` (stereo partly drawn) [I-384], the DC50 in experiment [1] (setting [3]) was in the range of 10 to 100 nM. Besides, in experiment [2] (Homo sapiens, OCI-Ly10, 96 h), the IC50 was below 50 nM.
On to `CN(CC[C@H]1CN(CCCc2cccc3c2n(C)c(=O)n3C2CCC(=O)NC2=O)CCO1)C[C@H]1CC[C@H](n2cc(NC(=O)c3coc(-c4ccnc(NCC5CC5)c4)n3)c(C(F)F)n2)CC1` (stereo partly drawn) [I-117], for which the IC50 in experiment [2] (Homo sapiens, OCI-Ly10, 96 h) was above 1000 nM.
Take `Cn1c(=O)n(C2CCC(=O)NC2=O)c2ccc(CCCOC3CN(C[C@H]4CC[C@H](n5cc(NC(=O)c6coc(-c7ccnc(NCC8CC8)c7)n6)c(C(F)F)n5)CC4)C3)cc21` (stereo partly drawn) [I-121]: in experiment [2] (Homo sapiens, OCI-Ly10, 96 h), the IC50 is above 1000 nM.
On the same count and under the same terms, the value for `CN(CC1CCC(n2cc(NC(=O)c3coc(-c4ccnc(NCC5CC5)c4)n3)c(C(F)F)n2)CC1)C[C@H]1CN(CCCc2cccc3c2n(C)c(=O)n3C2CCC(=O)NC2=O)CCO1` (stereo partly drawn) [I-113] was above 1000 nM; that for `CN(C[C@@H]1CN(CCNCc2ccc3c(c2)n(C)c(=O)n3C2CCC(=O)NC2=O)CCO1)C[C@H]1CC[C@H](n2cc(NC(=O)c3coc(-c4ccnc(NCC5CC5)c4)n3)c(C(F)F)n2)CC1` (stereo partly drawn) [I-109] was above 1000 nM.
Still for that read-out and setting: with `CN(C[C@@H]1CN(CCNCc2ccc3c(c2)n(C)c(=O)n3C2CCC(=O)NC2=O)CCO1)C(=O)[C@H]1CC[C@H](n2cc(NC(=O)c3coc(-c4ccnc(NCC5CC5)c4)n3)c(C(F)F)n2)CC1` (stereo partly drawn) [I-106] the figure was above 1000 nM.
Regarding `CN(CC[C@@H]1CN(CCCc2cccc3c2n(C)c(=O)n3C2CCC(=O)NC2=O)CCO1)C[C@H]1CC[C@H](n2cc(NC(=O)c3coc(-c4ccnc(NCC5CC5)c4)n3)c(C(F)F)n2)CC1` (stereo partly drawn) [I-116], in experiment [2] (Homo sapiens, OCI-Ly10, 96 h), the IC50 is above 1000 nM.
Consider `CN(CCOCCCc1cccc2c1n(C)c(=O)n2C1CCC(=O)NC1=O)C[C@H]1CC[C@H](n2cc(NC(=O)c3coc(-c4ccnc(NCC5CC5)c4)n3)c(C(F)F)n2)CC1` (stereo partly drawn) [I-124], for which the IC50 in experiment [2] (Homo sapiens, OCI-Ly10, 96 h) was above 1000 nM.
`CC1C(=O)N(C2CCC(=O)NC2=O)c2cccc(C3CCN(CCCN(C)C[C@H]4CC[C@H](n5cc(NC(=O)c6coc(-c7ccnc(NCC8CC8)c7)n6)c(C(F)F)n5)CC4)CC3)c21` (stereo partly drawn) [I-114]: in experiment [2], the IC50 lay within 100 to 500 nM.
Turning to `CN(CCOCCCc1ccc2c(c1)n(C)c(=O)n2C1CCC(=O)NC1=O)C[C@H]1CC[C@H](n2cc(NC(=O)c3coc(-c4ccnc(NCC5CC5)c4)n3)c(C(F)F)n2)CC1` (stereo partly drawn) [I-128], the IC50 in experiment [2] (Homo sapiens, OCI-Ly10, 96 h) was above 1000 nM.
On to `Cn1c(=O)n(C2CCC(=O)NC2=O)c2ccc(C#CC3CCN(C[C@H]4CC[C@H](n5cc(NC(=O)c6coc(-c7ccnc(NCC8CC8)c7)n6)c(C(F)F)n5)CC4)CC3)cc21` (stereo partly drawn) [I-111], for which the IC50 in experiment [2] (Homo sapiens, OCI-Ly10, 96 h) was above 1000 nM.
Take `CN1C(=O)C(C2CCC(=O)NC2=O)c2cccc(CCCOC3CCN(CC4CCC(n5cc(NC(=O)c6cnn7ccc(NC8CCCCC8O)nc67)c(C(F)F)n5)CC4)CC3)c21` (stereo not drawn) [I-290]: in experiment [2], the IC50 was above 1000 nM.
Turning to `O=C1CCC(n2c3ccccc3c3c(CCCOC4CCN(CC5CCC(n6cc(NC(=O)c7coc(-c8ccnc(NCC9CC9)c8)n7)c(C(F)F)n6)CC5)CC4)ccnc32)C(=O)N1` (stereo not drawn) [I-123], the IC50 in experiment [2] (Homo sapiens, OCI-Ly10, 96 h) is 500 to 1000 nM.
Still for that read-out and setting: the value for `CN(CCCOCC#Cc1ccc2c(c1)n(C)c(=O)n2C1CCC(=O)NC1=O)C[C@H]1CC[C@H](n2cc(NC(=O)c3coc(-c4ccnc(NCC5CC5)c4)n3)c(C(F)F)n2)CC1` (stereo partly drawn) [I-126] was above 1000 nM; that for `Cn1c(=O)n(C2CCC(=O)NC2=O)c2ccc(CN3CCN([C@@H]4CCN(C[C@H]5CC[C@H](n6cc(NC(=O)c7coc(-c8ccnc(NCC9CC9)c8)n7)c(C(F)F)n6)CC5)C4)CC3)cc21` (stereo partly drawn) [I-110] was above 1000 nM.
Regarding `Cn1c(=O)n(C2CCC(=O)NC2=O)c2cccc(CCCOCC(F)CNC(=O)c3cnc(-n4ncc5cc(C#N)cnc54)cc3NC3CC3)c21` (stereo not drawn) [I-137], in experiment [2] (Homo sapiens, OCI-Ly10, 96 h), the IC50 is above 1000 nM.
`Cn1c(=O)n(C2CCC(=O)NC2=O)c2cccc(CCCOC3CN(C[C@H]4CC[C@H](n5cc(NC(=O)c6coc(-c7ccnc(NCC8CC8)c7)n6)c(C(F)F)n5)CC4)C3)c21` (stereo partly drawn) [I-122]: the IC50 in experiment [2] (Homo sapiens, OCI-Ly10, 96 h) is above 1000 nM.
For the molecule `Cn1c(=O)n(C2CCC(=O)NC2=O)c2cccc(-c3ccc4c(cnn4CCOC[C@H]4CC[C@H](n5cc(NC(=O)c6cnn7ccc(N8CCOCC8)nc67)c(C(F)F)n5)CC4)c3)c21` (stereo partly drawn) [I-405], in experiment [2] (Homo sapiens, OCI-Ly10, 96 h), the IC50 is above 1000 nM.
As to `CN1C(=O)CCC(n2c(=O)n(C)c3c(C#CCOC4CCN(C[C@H]5CC[C@H](n6cc(NC(=O)c7cnn8ccc(N9C[C@H]%10C[C@@H]9CO%10)nc78)c(C(F)F)n6)CC5)CC4)cccc32)C1=O` (stereo partly drawn) [I-563, N-[3-(difluoromethyl)-1-[4-[[4-[3-[3-methyl-1-(1-methyl-2,6-dioxo-3-piperidyl)-2-oxo-benzimidazol-4-yl]prop-2-ynoxy]-1-piperidyl]methyl]cyclohexyl]pyrazol-4-yl]-5-[(1R,4R)-2-oxa-5-azabicyclo [2.2.1]heptan-5-yl] pyrazolo[1,5-a] pyrimidine-3-carboxamide], the IC50 in experiment [2] (Homo sapiens, 96 h) is above 1000 nM.
On to `Cn1c(=O)n(C2CCC(=O)NC2=O)c2cccc(-c3ccc4nn(CCOC[C@H]5CC[C@H](n6cc(NC(=O)c7cnn8ccc(N9CCOCC9)nc78)c(C(F)F)n6)CC5)cc4c3)c21` (stereo partly drawn) [I-406], for which the IC50 in experiment [2] (Homo sapiens, OCI-Ly10, 96 h) is above 1000 nM.
For `Cn1c(=O)n(C2CCC(=O)NC2=O)c2ccc(CCCOCC3CCN(C[C@H]4CC[C@H](n5cc(NC(=O)c6coc(-c7ccnc(NCC8CC8)c7)n6)c(C(F)F)n5)CC4)CC3)cc21` (stereo partly drawn) [I-119], in experiment [2] (Homo sapiens, OCI-Ly10, 96 h), the IC50 was above 1000 nM.
`Cn1c(=O)n(C2CCC(=O)NC2=O)c2cccc(CCCOC3CCN(C[C@H]4CC[C@H](n5cc(NC(=O)c6cnn7ccc(N8CCNCC8)nc67)c(C(F)F)n5)CC4)CC3)c21` (stereo partly drawn) [I-125]: the IC50 in experiment [2] (Homo sapiens, OCI-Ly10, 96 h) is above 1000 nM.
